Legend:
U-937 = assay: Antiproliferative activity, MTT assay, U-937 cells; type: cell-based, human; conditions: for IC50: Homo sapiens, U-937, 72 h, MTT, mean ± SE, at least three independent experiments; for fold more potent than p-methoxy counterpart 8j: antiproliferative activity, cell line not specified (U-937 and SK-MEL-1)
Description: (§1) In Table 1, we summarize the antiproliferative activity of the 15 novel 2-arylalkylamino-4-amino-5-(3′,4′,5′-trimethoxybenzoyl)thiazole derivatives 8a–o against human leukemia (U-937) and melanoma (SK-MEL-1) tumor cells lines.
(§2) Human U-937 and SK-MEL-1 cell lines were from the German Collection of Microorganisms and Cell Cultures (Braunschweig, Germany; DSMZ No: ACC 5 and ACC 303, respectively). The U-937 is a myeloid leukemia cell line isolated from a histiocytic lymphoma. SK-MEL-1 is a melanoma cell line. Cells were cultured in suspension in RPMI 1640 medium supplemented with 10% (v/v) fetal bovine serum and antibiotics (100 μg mL^−1 streptomycin and 100 U mL^−1 penicillin), at 37 °C in a humidified atmosphere containing 5% CO2. The trypan blue exclusion method was used for counting the cells by a hemocytometer, and cell viability was always greater than 95% in all experiments. Compounds were dissolved in DMSO, and further dilutions were made in culture medium just before use. […] The effects on cell viability of synthetic compounds were determined using a colorimetric assay with the reduction of 3-(4,5-dimethyl-2-thiazolyl-)-2,5-diphenyl-2H-tetrazolium bromide (MTT) as previously described. Briefly, 5 × 10^3 cells were seeded in 96-well microculture plates with increasing concentrations of compounds for 72 h. Then, MTT (0.5 mg mL^−1) was added and incubated for 4 h, and the reaction was stopped with 20% sodium dodecyl sulfate. A570 was used as a measure of cell viability. Concentrations inducing a 50% inhibition of cell growth were determined graphically by nonlinear regression using the curve-fitting algorithm of GraphPad Prism 4.0 (GraphPad Inc La Jolla, CA, USA).

SK-MEL-1 = assay: Antiproliferative activity, MTT assay, SK-MEL-1 cells; type: cell-based, human; conditions: Homo sapiens, SK-MEL-1; 72 h, MTT; mean ± SE, at least three independent experiments
Description: as §1, §2

melting point [°C]	IC50 (U-937) [µM]	IC50 (SK-MEL-1) [µM]	Compound	fold more potent than p-methoxy counterpart 8j (U-937) [fold]
145 to 147	15.4 ± 4.9	19 ± 9.4	COc1cc(C(=O)c2sc(NCc3ccc(C)cc3)nc2N)cc(OC)c1OC [8h, (4-Amino-2-((4-methylbenzyl)amino)thiazol-5-yl)(3,4,5-trimethoxyphenyl)methanone]	
150 to 152	18.1 ± 6.4	16.7 ± 5.6	COc1cc(C(=O)c2sc(NCc3cccc(C)c3)nc2N)cc(OC)c1OC [8i, (4-Amino-2-((3-methylbenzyl)amino)thiazol-5-yl)(3,4,5-trimethoxyphenyl)methanone]	
131 to 135	23.8 ± 5.2	22.9 ± 13.7	COc1ccc(CNc2nc(N)c(C(=O)c3cc(OC)c(OC)c(OC)c3)s2)cc1 [8j, (4-Amino-2-((4-methoxybenzyl)amino)thiazol-5-yl)(3,4,5-trimethoxyphenyl)methanone]	
125 to 128	12.3 ± 6.1	12.4 ± 4.8	COc1cccc(CNc2nc(N)c(C(=O)c3cc(OC)c(OC)c(OC)c3)s2)c1 [8l, (4-Amino-2-((3-methoxybenzyl)amino)thiazol-5-yl)(3,4,5-trimethoxyphenyl)methanone]	2
	13.6 ± 5.3	10.4 ± 2.8	COc1ccccc1CNc1nc(N)c(C(=O)c2cc(OC)c(OC)c(OC)c2)s1 [8m, (4-Amino-2-((2-methoxybenzyl)amino)thiazol-5-yl)(3,4,5-trimethoxyphenyl)methanone]	2
107 to 111	28.7 ± 10.5	32.7 ± 7.7	COc1ccc(CNc2nc(N)c(C(=O)c3cc(OC)c(OC)c(OC)c3)s2)cc1OC [8n, (4-Amino-2-((3,4-dimethoxybenzyl)amino)thiazol-5-yl)(3,4,5-trimethoxyphenyl)methanone]	
156 to 158	27 ± 0.9	24.7 ± 1	COc1cc(C(=O)c2sc(NCc3ccc4c(c3)OCO4)nc2N)cc(OC)c1OC [8o, (4-Amino-2-((benzo[d][1,3]dioxol-5-ylmethyl)amino)thiazol-5-yl)(3,4,5-trimethoxyphenyl) methanone]	
	0.083 ± 0.021	0.274 ± 0.07	COc1cccc2c1C(=O)c1c(O)c3c(c(O)c1C2=O)C[C@@](O)(C(=O)CO)C[C@@H]3O[C@H]1C[C@H](N)[C@H](O)[C@H](C)O1 [Doxorubicin, reference compound]	
	2.1 ± 0.4	6.3 ± 1	COc1cc([C@@H]2c3cc4c(cc3[C@@H](O[C@@H]3O[C@@H]5CO[C@@H](C)O[C@H]5[C@H](O)[C@H]3O)[C@H]3COC(=O)[C@H]23)OCO4)cc(OC)c1O [Etoposide, reference compound]	
